Consider two substances from patent US20030008857A1, “Photodynamic therapy (PDT) in combination with factors that bind cell surface apoptosis-inducing receptors” (priority 1999, published 2003).

The subject of one test is HeLa/neo cells. Put plainly: MTT cell viability assay. Type of test: cell-based. As to the method: (§1) HeLa cells were from the American Type Culture Collection (Manassas, Va.). Cells were grown in Dulbecco's modified Eagles medium (DMEM) supplemented with penicillin (100 U/ml), streptomycin (100 μg/ml), 2 mM L-glutamine, 1 mM HEPES buffer, and 10% heat-inactivated fetal bovine serum (FBS). HeLa cells over-expressing Bcl-2 and Bcl-xL were generated as described (Vander Heiden et al.). Briefly, Bcl-2 and Bcl-xL inserts were cloned into an EcoRI site of a pSFFV-neo vector (Fuhlbrigge et al.). Vectors containing inserts, or no insert (neo), were transfected into HeLa cells by electroporation. After selection in G418 (Gibco/BRL Life Technologies), cells were cloned by limiting dilution and transfectants screened for Bcl-xL or Bcl-2 by Western blot analysis. Transfected cell lines were maintained in complete DMEM with G418 (10 μg/ml).
(§2) For treatments with TRAIL and PDT, cells were incubated with 0-100 ng/ml verteporfin for 60 min at 37° C. in complete DMEM with 2% FBS or incubated with medium alone. Cells were light protected or exposed to blue fluorescent light to give a total dose of 1 J/cm^2. For experiments where cells were treated with 0-1000 ng/ml TRAIL (BIOMOL, Plymouth Meeting, Pa.), this compound was added immediately after light treatment to HeLa cells in complete DMEM with 10% FBS. Cells were maintained at 37° C. with 5% CO2
(§3) To assess their viability, cells were cultured in 96-well microtiter plates and the MTT (3-(4,5)-dimethylthiazol-2-yl)-2,5-diphenyl tetrazolium bromide) calorimetric assay was performed as described (Mosmann et al.) with modifications. Following treatment, culture medium was decanted and replaced with complete DMEM containing 10% FBS. At 24 h following treatment, culture medium was aspirated and 50 μg of MTT in 100 μl of DMEM containing 2% FBS was added to each well. The reaction was stopped 2 h later by the addition of 150 μl of acidified isopropanol. Color development was measured at 590 nm with a microtiter plate reader. The result obtained for PDT, TRAIL or TRAIL plus PDT treatments was compared to the MTT value obtained for cells not given any treatment and expressed as percentages (%) of the control result.

A further test deals with HeLa/Bcl-xL cells. Put plainly: MTT cell viability assay. Type of test: cell-based. As to the method: as §1, §2, §3
Background: Tetrazolium dyes change colour on reduction, which living cells bring about.

The subject of the next test is HeLa/Bcl-2 cells. In words: MTT cell viability assay. Type of test: cell-based. The protocol:
as §1, §2, §3

Test [1] concerns caspase-3, -6, -8 and -9 and PARP. In words: Western immunoblot of caspase processing and PARP cleavage in Jurkat cells. Type of test: cell-based, human. As to the method:
The human Jurkat T cell line containing a neomycin resistance gene was obtained from Dr. Charles Rudin (University of Chicago). Cells were maintained in RPMI 1640 medium containing 10% heat-inactivated fetal calf serum (FCS) with penicillin (100 U/mL), streptomycin (100 μg/mL), 20 mM HEPES, 2 mM L-glutamine and G418 (1 μg/ml) purchased from Gibco BRL (Burlington, Ontario) in a CO2 incubator at 37° C. To elicit apoptosis with PDT, Jurkat cells were incubated with different amounts of liposomally formulated benzoporphyrin derivative monoacid ring A (BPD-MA, verteporfin, QLT PhotoTherapeutics, Inc., Vancouver, Canada) for one hour at 37° C. under light-protected conditions. The culture medium used for experiments was identical to that used for the passage of the cells except that FCS was used at a concentration of 5%. Experiments were conducted either in 6-well culture plates at 5×10^6 cells in a volume of 4 ml per well or in 96-well microtiter plates at 1×10^5 cells per well at 0.2 ml per well. Cells were irradiated with light of a wavelength of 690 nm delivered at 65-73 mW/sec from light emitting diodes (LED) to achieve a total light dose of 5 J/cm^2. Cells were returned to the incubator until required for analysis.
FasL and TRAIL as used were recombinant preparations. FasL was obtained from Upstate Biotechnology (Lake Placid NY) and corresponded to amino acids 103-281 of the soluble domain of human FasL. TRAIL was obtained from BIOMOL Research Laboratories (Plymouth Meeting, Pa.) and corresponded to residues 114-281 of the soluble domain of human TRAIL. FasL and TRAIL were usually added immediately following the treatment of cells with PDT, although in one series of experiments these factors were added at 1, 2 or 3 hours post-irradiation.
Whole cell lysates were prepared by washing 1×10^7 cells per sample twice with ice-cold PBS. Cells were disrupted with 1 mL of lysis buffer [1% Nonidet P-40 detergent (NP-40), 20 mM Tris-HCl, pH 8.0, 137 mM NaCl, 10% glycerol, 1 mM phenylmethylsulfonyl fluoride (PMSF) aprotinln (0.15 U/mL) and 1 mM sodium orthovanadate] for 20 minutes on ice. Lysates were centrifuged for 10 minutes at 15,800×g at 4° C.
To evaluate the activation state of different caspases and the status of other cellular proteins, whole cell lysates were separated by sodium dodecyl sulphate polyacrylamide gel electrophoresis (SDS-PAGE). Specifically, detergent-soluble proteins were separated by SDS-PAGE within 10% gels under reducing conditions as described by Laemmli et al. (“Cleavage of Structural Proteins During the Assembly of the Head of Bacteriophage T4”, Nature, 227, 680-685 (1970)). The proteins were transferred to nitrocellulose membranes at 100 volts for one hour. […]

Where [2] appears, read: TRAIL in combination with verteporfin PDT, 24 hours.
Setting [3] is: TRAIL up to 25 ng/ml, 24 hours post-treatment.
[4] abbreviates: PDT with verteporfin at 25 or 50 ng/ml, blue fluorescent light 1 J/cm^2, 24 hours.

Entries after “also recorded” stand apart in the source; their conditions may differ.

On to “TRAIL: recombinant, residues 114-281 of the soluble domain of human TRAIL (BIOMOL)”, for which the cell viability entry is reported as “a complete loss of viability” in the test on HeLa/neo cells (TRAIL at 500 ng/ml, 24 hours); “a loss in viability” in the test with HeLa/neo cells (TRAIL at 50 and 100 ng/ml, 24 hours); “little or no loss of cell viability” with HeLa/neo cells (setting [3]); “a significant degree of protection against TRAIL” with HeLa/Bcl-xL cells (TRAIL at 500 ng/ml, 24 hours); “little or no loss of cell viability” with HeLa/Bcl-xL cells (setting [3]); “a significant degree of protection against TRAIL” in the test on HeLa/Bcl-2 cells (TRAIL at 500 ng/ml, 24 hours). Besides, the cell viability entry with HeLa/Bcl-2 cells (setting [3]) was “little or no loss of cell viability”. Besides, the “cell viability compared with PDT or TRAIL alone and with the expected additive effect” value in the test with HeLa/neo cells (setting [2]), in the test on HeLa/Bcl-xL cells (setting [2]) and in the test on HeLa/Bcl-2 cells (setting [2]) was “significantly decreased cell viability” each time. Besides, the “caspase processing and PARP degradation compared with PDT or the factor alone” value in test [1] (FasL 7.5 ng/ml or TRAIL 20 ng/ml combined with verteporfin PDT, 3 hours) was “more extensive caspase processing and PARP degradation; also recorded: a higher degree of processing”. Moreover, in test [1] (FasL 7.5 ng/ml or TRAIL 20 ng/ml, 3 hours), the “processing of caspases and PARP by the factor alone” value was “minor processing; also recorded: little detectable processing”.

As for “benzoporphyrin derivative monoacid ring A [verteporfin, reference compound]”, the cell viability entry in the test on HeLa/neo cells (setting [4]), in the test on HeLa/Bcl-xL cells (setting [4]) and in the test on HeLa/Bcl-2 cells (setting [4]) was “some loss in viability” each time. In test [1] (increasing verteporfin concentrations, 5 J/cm^2, 3 hours after irradiation), the “caspase processing after PDT alone” value is “evidence of caspase-3, -6, -8 and -9 processing; also recorded: processing of caspases-3, -6, -8 and -9”. The “caspase-3, -8, -9 and PARP processing after PDT alone” value in test [1] (verteporfin 5 ng/ml, 5 J/cm^2, 3 hours (FIG. 8)) is “a moderate degree”.
